Results published in US20230375530A1, “HUMAN BLOOD-BRAIN BARRIER MODEL FOR IMMUNOLOGICAL STUDIES” (WISCONSIN ALUMNI RESEARCH FOUNDATION, priority 2020, published 2023).

Legend:
Type in all cases: cell-based, human
[1] = system: matured hPSC-derived ECs (Passage 5); assay: CHIR treatment in matured endothelium, immunocytochemistry
Description: (§1) For extended culture, ECs were selectively dissociated and replated as previously described (Nishihara et al., 2020). Cells were incubated with Accutase until endothelial cells appeared round, typically 2-3 min at 37° C. The plate was tapped to release the ECs while SMLCs remained attached, and the EC-enriched cell suspension transferred to 4× volume of DMEM/F-12 and centrifuged for 5 min, 200×g. Cells were resuspended in hECSR medium and seeded on a new collagen IV-coated plate at approximately 3×10^4 cells/cm^2. hECSR medium was replaced every other day until confluent (typically 6 days). The selective dissociation and seeding described above was repeated, and hECSR medium was again replaced every other day until confluent (typically 6 days). We denote this time point “Passage 3.” In one experiment, these steps were repeated for another two passages. Except where indicated, CHIR 99021 or vehicle (DMSO) was included in the hECSR medium for the entire duration of culture.
Immunocytochemistry was performed in 24-well plates. […]
Images were analyzed using FIJI (ImageJ) software. For epifluorescence images, 5 fields (20×) were analyzed per well, with 3-4 wells per treatment condition. For quantification of cell number, EC colonies were manually outlined, and the Analyze Particles function was used to estimate the number of nuclei within the EC colonies. Nuclei outside the EC colonies were manually counted. EC purity (% EC) was calculated as the number of nuclei within EC colonies relative to total nuclei. To estimate % GLUT-1^+ ECs, cells within the EC colonies with membrane-localized GLUT-1 immunoreactivity (e.g., arrowheads in FIG. 24B) were manually counted. To estimate % Ki67^+ ECs, cells within the EC colonies with at least one nuclear-localized Ki67 punctum were manually counted. For quantification of fluorescence intensity in epifluorescence images, EC colonies were manually outlined, and the Measure function was used to obtain the mean fluorescence intensity for each image channel (fluorophore). A cell-free area of the plate was similarly quantified for background subtraction. […]

[2] = system: hPSC-derived Passage 1 and Passage 3 ECs; assay: Western blotting of DMSO- or CHIR-treated ECs
Description: as §1
To enrich samples from Passage 1 cultures for ECs, the Accutase-based selective dissociation method described above was employed. Dissociated cells were centrifuged for 5 min, 200×g, and resulting cell pellets were lysed in RIPA buffer (Rockland Immunochemicals, Pottstown, PA) supplemented with 1× Halt Protease Inhibitor Cocktail (Thermo Scientific). Passage 3 cells were lysed with the above buffer directly on plates. Lysates were centrifuged at 4° C. for 5 min, 14,000×g, and protein concentration in supernatants quantified using the Pierce BCA Protein Assay Kit (Thermo Scientific). Equal amounts of protein were diluted to equal volume with water, mixed with sample buffer, and heated at 95° C. for 5 min, except lysates intended for GLUT-1 Western blotting, which were not heated. Samples were resolved on 4-12% Tris-Glycine gels and transferred to nitrocellulose membranes. Membranes were blocked for 1 h in tris-buffered saline plus 0.1% Tween-20 (TBST) supplemented with 5% non-fat dry milk. Primary antibodies (see Table 6 for antibody information) diluted in TBST plus 5% non-fat dry milk were added to membranes and incubated overnight at 4° C. on a rocking platform. Membranes were washed five times with TBST. Secondary antibodies (see Table 6 for antibody information) diluted in TBST were added to membranes and incubated for 1 h at room temperature on a rocking platform, protected from light. Membranes were washed five times with TBST and imaged using an Odyssey 9120 (LI-COR, Lincoln, NE). Band intensities were quantified using Image Studio software (LI-COR).

[3] = system: Passage 3 ECs; assay: Transendothelial electrical resistance and sodium fluorescein permeability; settings: CHIR-treated vs DMSO-treated
[4] = system: CD31+ Passage 1 ECs; assay: Dextran accumulation assay (fluid-phase endocytosis); settings: 10 kDa dextran, 2 h, 37° C., CHIR vs DMSO
Description: A fixable, Alexa Fluor 488-conjugated dextran with an average molecular weight of […] (Invitrogen) was used as a tracer to estimate total fluid-phase endocytosis. Dextran was added at 10 μM to the medium of Passage 1 cultures. Plates were incubated on rotating platforms at 37° C. or 4° C. for 2 h. Medium was removed and cells were washed once with DPBS, and then incubated with Accutase for 10 min at 37° C. Cell suspensions were passed through 40 μm cell strainers into 4× volume of DMEM/F-12 and centrifuged for 5 min, 200×g. Cells were resuspended in MACS buffer and incubated with the CD31-APC antibody (Miltenyi Biotec) for 30 min at 4° C., protected from light. Cell suspensions were brought to a volume of 5 mL with MACS buffer and centrifuged at 4° C. for 5 min, 200×g. Pellets were resuspended in DPBS supplemented with 4% paraformaldehyde and incubated for 15 min at room temperature, protected from light. Cells were centrifuged for 5 min, 200×g. Pellets were resuspended in MACS buffer and analyzed on a BD FACSCalibur flow cytometer (BD Biosciences). FlowJo software was used to gate CD31^+ cells and quantify geometric mean fluorescence intensity and coefficient of variation (CV) of dextran.

For `Cc1c[nH]c(-c2cnc(NCCNc3ccc(C#N)cn3)nc2-c2ccc(Cl)cc2Cl)n1` [CHIR, CHIR 99021], the “increase in GLUT-1 abundance” value ([1]; CHIR for 6 days after 4 passages, vs DMSO) was “approximately 1.5 fold”, the EC number ([1]; CHIR in matured ECs) was “slight decrease in EC number” and the claudin-5 expression ([1]; CHIR in matured ECs) was “variable effects”. For the same compound, the “PLVAP reduction in Western blots” value ([2]; Passage 1 ECs) was “not apparent”, the “GLUT-1 and claudin-5 in Western blots” value ([2]; Passage 1 and Passage 3) was “upregulation of GLUT-1 and claudin-5” and the LSR expression ([2]; Passage 1 and Passage 3 ECs) was “strong increase in LSR expression”. For the same compound, the “PLVAP in Western blots” value ([2]; Passage 3 ECs, CHIR vs controls) was “robust downregulation of PLVAP”, the “transendothelial electrical resistance (TEER)” value [3] was “elevated transendothelial electrical resistance” and the “distribution of dextran intensities” value [4] was “broadening of the distribution of dextran intensities”. For the same compound, the “geometric mean dextran signal” value [4] was “did not change the geometric mean dextran signal”.
